Columns and labels:
[1] = biological target: T1, eNOS (Bos taurus, UniProt P29473); assay: eNOS Dimerization Inhibition assay (Griess, Hek293 cells expressing bovine eNOS); format: cell-based
T1 construct: expressed in transfected cells; host or cells: HEK293 (stably transduced)
T1 sequence (P29473 1-1205): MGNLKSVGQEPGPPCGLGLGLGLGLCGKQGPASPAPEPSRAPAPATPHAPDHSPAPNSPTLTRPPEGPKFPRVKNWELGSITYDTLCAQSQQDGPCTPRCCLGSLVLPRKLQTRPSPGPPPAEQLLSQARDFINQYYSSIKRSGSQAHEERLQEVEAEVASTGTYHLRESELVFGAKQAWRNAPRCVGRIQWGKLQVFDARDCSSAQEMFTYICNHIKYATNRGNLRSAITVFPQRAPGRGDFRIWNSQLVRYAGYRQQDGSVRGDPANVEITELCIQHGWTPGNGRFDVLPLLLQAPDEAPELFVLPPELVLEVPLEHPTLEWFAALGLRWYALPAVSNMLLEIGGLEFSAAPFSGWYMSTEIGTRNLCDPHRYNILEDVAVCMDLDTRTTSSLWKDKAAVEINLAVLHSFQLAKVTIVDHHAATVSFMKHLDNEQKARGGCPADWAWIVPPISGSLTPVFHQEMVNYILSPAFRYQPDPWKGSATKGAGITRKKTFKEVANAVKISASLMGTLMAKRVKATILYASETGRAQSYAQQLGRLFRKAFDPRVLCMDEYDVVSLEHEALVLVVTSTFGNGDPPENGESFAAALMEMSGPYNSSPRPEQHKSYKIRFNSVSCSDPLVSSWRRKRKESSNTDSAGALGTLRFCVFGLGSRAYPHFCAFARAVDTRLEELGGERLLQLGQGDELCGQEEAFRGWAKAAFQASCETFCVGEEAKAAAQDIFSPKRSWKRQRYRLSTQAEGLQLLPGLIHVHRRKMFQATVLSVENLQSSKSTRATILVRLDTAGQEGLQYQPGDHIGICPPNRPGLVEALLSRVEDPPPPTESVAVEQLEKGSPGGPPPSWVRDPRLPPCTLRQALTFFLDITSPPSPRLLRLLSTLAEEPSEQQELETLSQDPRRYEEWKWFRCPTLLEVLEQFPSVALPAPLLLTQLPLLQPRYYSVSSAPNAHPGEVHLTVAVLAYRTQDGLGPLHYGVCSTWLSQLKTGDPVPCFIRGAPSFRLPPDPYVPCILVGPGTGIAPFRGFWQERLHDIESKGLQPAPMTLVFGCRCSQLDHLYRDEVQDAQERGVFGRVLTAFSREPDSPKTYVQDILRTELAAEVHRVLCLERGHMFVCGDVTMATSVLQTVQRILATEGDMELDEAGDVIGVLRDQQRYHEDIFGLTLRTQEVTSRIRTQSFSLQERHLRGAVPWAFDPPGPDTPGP
Description: (§1) nNOS Dimerization Inhibition assay. Hek293 cells stably transduced to express rat nNOS were grown to confuency in DMEM supplemented with 10% FBS, pen/strep and 0.4 mg/mL G418. Cells were then plated into 96 well plates at 50,000 cells per well. After 12 h of growth a serial dilution of test compound was added with a vehicle control leaving one additional lane empty as a second activator control. Compounds and cells were allowed to interact for 48 h to allow for full degradation of undrugged active dimeric species. After 48 h […] of a 10 mM calcium ionophore stock was added. After 4 h, 50 uL of the media from each well was removed and mixed with 50 uL Griess Reagent 1 (Promega Griess assay kit). This mixture was incubated for 5 mins and then 50 uL Reagent 2 was added. The plate was read at 530 nm and an IC50 calculated.
eNOS Dimerization Inhibition assay. The nNOS protocol was followed substituting Hek293 cells stably transduced to express bovine eNOS

[2] = biological target: T2, nNOS (Rattus norvegicus, UniProt P29476); assay: nNOS Dimerization Inhibition assay (Griess, Hek293 cells expressing rat nNOS); format: cell-based
T2 construct: expressed in transfected cells; host or cells: HEK293 (stably transduced, G418 selection)
T2 sequence (P29476 whole entry): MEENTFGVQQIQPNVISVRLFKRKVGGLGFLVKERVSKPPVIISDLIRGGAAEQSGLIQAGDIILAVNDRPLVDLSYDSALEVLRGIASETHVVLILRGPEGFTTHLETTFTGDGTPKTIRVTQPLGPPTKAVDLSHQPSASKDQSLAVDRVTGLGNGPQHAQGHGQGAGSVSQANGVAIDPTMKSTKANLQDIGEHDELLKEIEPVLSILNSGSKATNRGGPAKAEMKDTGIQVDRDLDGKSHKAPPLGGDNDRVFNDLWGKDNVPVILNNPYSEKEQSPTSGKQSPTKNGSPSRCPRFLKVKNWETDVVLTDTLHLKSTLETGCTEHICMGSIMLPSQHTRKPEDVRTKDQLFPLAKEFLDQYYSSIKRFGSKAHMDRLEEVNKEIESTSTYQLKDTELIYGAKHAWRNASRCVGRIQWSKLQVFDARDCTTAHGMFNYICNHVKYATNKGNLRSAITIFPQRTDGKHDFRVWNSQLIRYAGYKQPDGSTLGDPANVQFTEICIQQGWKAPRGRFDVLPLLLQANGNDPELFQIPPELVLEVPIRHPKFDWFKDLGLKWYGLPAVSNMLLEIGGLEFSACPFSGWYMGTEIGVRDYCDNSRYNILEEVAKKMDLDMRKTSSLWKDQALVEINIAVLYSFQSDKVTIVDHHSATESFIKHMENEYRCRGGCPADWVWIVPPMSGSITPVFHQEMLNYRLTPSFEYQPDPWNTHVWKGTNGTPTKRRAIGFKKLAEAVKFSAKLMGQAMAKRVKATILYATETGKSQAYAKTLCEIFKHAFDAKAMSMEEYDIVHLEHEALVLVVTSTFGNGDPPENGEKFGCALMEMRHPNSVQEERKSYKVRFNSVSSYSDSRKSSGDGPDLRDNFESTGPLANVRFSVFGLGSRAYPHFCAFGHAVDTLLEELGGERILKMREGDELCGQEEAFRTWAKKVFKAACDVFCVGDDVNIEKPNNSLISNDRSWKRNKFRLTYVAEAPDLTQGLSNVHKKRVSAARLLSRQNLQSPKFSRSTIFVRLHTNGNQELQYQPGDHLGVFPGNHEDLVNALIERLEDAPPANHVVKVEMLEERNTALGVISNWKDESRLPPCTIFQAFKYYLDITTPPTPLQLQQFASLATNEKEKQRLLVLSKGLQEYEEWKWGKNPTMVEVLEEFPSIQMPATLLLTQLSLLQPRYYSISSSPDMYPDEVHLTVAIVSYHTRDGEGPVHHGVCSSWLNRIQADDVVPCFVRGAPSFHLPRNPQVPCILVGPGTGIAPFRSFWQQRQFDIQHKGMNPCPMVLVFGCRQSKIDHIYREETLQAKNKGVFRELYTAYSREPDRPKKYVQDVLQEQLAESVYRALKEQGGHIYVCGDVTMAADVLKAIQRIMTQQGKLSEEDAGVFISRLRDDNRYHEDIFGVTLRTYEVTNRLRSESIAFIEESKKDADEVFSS
Description: as §1

[3] = biological target: T3, iNOS (Mus musculus, UniProt P29477); assay: iNOS Dimerization Inhibition assay (Griess, Raw 264.7 cells, LPS/IFN-γ); format: cell-based, murine
T3 construct: endogenous in cells; host or cells: Raw 264.7 cells stimulated with E. coli LPS and IFN-gamma
T3 sequence (P29477 1-1144): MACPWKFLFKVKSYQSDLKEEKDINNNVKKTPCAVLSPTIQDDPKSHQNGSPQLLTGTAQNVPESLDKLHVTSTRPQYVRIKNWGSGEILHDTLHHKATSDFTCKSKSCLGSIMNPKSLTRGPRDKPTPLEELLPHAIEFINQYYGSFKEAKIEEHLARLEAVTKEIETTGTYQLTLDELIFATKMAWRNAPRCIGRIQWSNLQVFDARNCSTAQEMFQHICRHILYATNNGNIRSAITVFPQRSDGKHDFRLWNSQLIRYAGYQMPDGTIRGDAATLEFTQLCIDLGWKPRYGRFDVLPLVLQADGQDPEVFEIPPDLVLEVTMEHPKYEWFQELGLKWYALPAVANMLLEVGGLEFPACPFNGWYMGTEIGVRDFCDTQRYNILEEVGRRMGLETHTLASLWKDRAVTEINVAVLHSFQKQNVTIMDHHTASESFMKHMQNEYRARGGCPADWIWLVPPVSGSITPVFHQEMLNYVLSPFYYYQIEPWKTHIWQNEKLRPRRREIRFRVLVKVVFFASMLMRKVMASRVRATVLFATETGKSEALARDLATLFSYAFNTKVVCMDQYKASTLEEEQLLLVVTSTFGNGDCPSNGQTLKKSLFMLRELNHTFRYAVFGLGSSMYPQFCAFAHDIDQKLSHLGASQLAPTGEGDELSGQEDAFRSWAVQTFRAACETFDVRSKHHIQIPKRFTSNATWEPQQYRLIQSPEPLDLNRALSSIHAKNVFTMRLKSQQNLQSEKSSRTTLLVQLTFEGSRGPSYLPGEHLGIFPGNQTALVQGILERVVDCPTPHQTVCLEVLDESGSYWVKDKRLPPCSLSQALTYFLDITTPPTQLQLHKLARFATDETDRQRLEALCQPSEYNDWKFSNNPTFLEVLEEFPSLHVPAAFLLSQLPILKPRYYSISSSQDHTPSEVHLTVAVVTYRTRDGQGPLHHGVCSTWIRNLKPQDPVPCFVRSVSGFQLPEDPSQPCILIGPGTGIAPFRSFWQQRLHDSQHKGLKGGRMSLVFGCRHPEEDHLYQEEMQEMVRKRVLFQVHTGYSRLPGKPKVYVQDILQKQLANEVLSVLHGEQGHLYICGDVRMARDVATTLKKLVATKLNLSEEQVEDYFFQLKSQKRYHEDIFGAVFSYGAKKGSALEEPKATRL
Description: iNOS Dimerization Inhibition assay. Raw 264.7 cells were grown to confuency in DMEM supplemented with 10% FBS and pen/strep. Cells were then plated into 96 well plates at 50,000 cells per well. After 12h of growth a serial dilution of test compound was added along with e.coli LPS (50 ug/ml final) and IFN-Y (500 ng/ml final) with a vehicle control. Compounds and cells were allowed to interact for 48 h to allow for full degradation of undrugged active dimeric species. After 48 h, 50 uL of the media from each well was removed and mixed with 50 uL Griess Reagent 1 (Promega Griess assay kit). This mixture was incubated for 5 mins and then 50 uL Reagent 2 was added. The plate was read at 530 nm and an IC50 calculated.

Row | IC50 [1] [µM] | IC50 [2] [µM] | IC50 [3] [µM] | Compound
1 | 18 | 0.2 | 0.1 | O=C(C[C@H]1CCCN1c1ccnc(-n2ccnc2)n1)NCc1ccc2c(c1)OCO2 [Compound 1, (R)-2-[2-(1H-imidazol-1-yl)-4-pyrimidylpyrrolidin-2-yl)-N-(benzo[d][1,3]dioxo-5-ylmethyl)acetamide]
2 | 21.1 | 0.14 | 0.62 | COc1ccc(CNC(=O)C[C@H]2CCCN2c2ccnc(-n3ccnc3)n2)cc1OC [Compound 2, (R)-2-[2-(1H-imidazol-1-yl)-4-pyrimidylpyrrolidin-2-yl]-N-(3,4-dimethoxybenzyl) acetamide]
3 | 57 | 6.7 | 3.7 | CCOc1cc(CNC(=O)C[C@H]2CCCN2c2ccnc(-n3ccnc3)n2)ccc1OC [Compound 3, (R)-2-[2-(1H-imidazol-1-yl)-4-pyrimidylpyrrolidin-2-yl]-N-(3-ethoxy-4-methoxybenzy)acetamide]
4 | 55 | 14.1 | 6 | (R)-2-[2-(1H-imidazol-1-yl)-4-pyrimidylpyrrolidin-2-yl]-N-(3-benzyl-4-methoxybenzyl)acetamide [Compound 5]
5 | 86 | 7.4 | 4.5 | (R)-2-[2-(1H-imidazol-1-yl)-4-pyrimidylpyrrolidin-2-yl]-N-(4-methoxy-3-n-propylbenzyl)acetamide [Compound 4]

Source: patent publication US20200377481A1, “SUBSTITUTED 4-(1-PYRROLIDINYL)PYRIMIDINE COMPOUNDS AS DIMERIZATION INHIBITORS OF NEURONAL NITRIC OXIDE SYNTHASE” (Northwestern University, priority 2016, published 2020)
